Measurements as given in patent US11603356B2, “Amorphous form of a complement component C5a receptor” (CHEMOCENTRYX, INC., priority 2019, dated 2023).
Converted amounts (≈) assume the structure as drawn.

Key:
[1] = Dynamic vapor sorption (DVS) of the amorphous form; type: physicochemical
Procedure: To evaluate the hygroscopicity and physical stability of the amorphous form of Compound 1 under different humidity, dynamic vapor sorption (DVS) data was collected at 25° C. after the sample was pre-equilibrated at 0% RH to remove unbounded water. DVS was measured using a VTI SGA-100 Vapor Sorption Analyzer. Sorption and desorption data was collected over a range from 5% to 95% RH at 10% RH increments under a nitrogen purge. The equilibrium criterion used for analysis was less than 0.0100% weight change in 5 minutes with a maximum equilibrium time of 3 hours.

[2] = Kinetic solubility in 0.1 N HCl, FaSSGF and FeSSIF at 37° C.; type: physicochemical
Procedure: The in vitro solubility of a crystalline form of Compound 1 and the amorphous form of Compound 1 was tested.
The amorphous form was prepared as described in Example 2, Method 1, and the crystalline form of Compound 1 was prepared as described in Example 1.
Crystalline and amorphous forms of Compound 1 were saturated in three different media: 0.1 N HCl solution, Fasted State Simulated Gastric Fluid (FaSSGF), and Fed State Simulated Intestinal Fluid (FeSSIF). The samples were shaken inside a 37° C. water bath at 40 rpm. The concentration of Compound 1 dissolved in these samples was measured by HPLC at four different time points (0.5, 1, 2 and 4 hours).

[3] = Solubility in IV formulation saline/PEG400/Tween80; type: physicochemical
Procedure: Intravenous (IV) formulations of a crystalline form of Compound 1 and the amorphous form of Compound 1 were prepared by contacting the amorphous of crystalline Compound 1 with saline/PEG400/Tween80 (88:10:1). The crystalline form of Compound 1 was prepared as described in Example 1, the amorphous form of Compound was prepared as described in Example 2, Method 1.

[4] = Stability storage test (25° C./60% RH, 12 months; HPLC, KF, XRPD); type: physicochemical; settings: for Specified Individual Related Substances (HPLC): RRT1.05
Procedure: A sample of amorphous form of Compound 1 was tested by different analytical methods and the data was reported in the “Time Zero” column (Table 3). These analytical methods included: HPLC and Karl Fisher (KF). The sample was placed in double Low-Density Polyethylene (LDPE) bags, sealed with a cable tie, then placed in a High-Density Polyethylene (HDPE) bottle with foil and heat-induction sealed, with 0.5 g desiccant between LDPE bags. The HDPE bottle was stored inside an environment chamber at 25° C. and 60% relative humidity (RH). After 12 months inside the environment chamber, the sample was tested again by the same analytical methods.

[5] = In vivo rat PK study, oral aqueous liquid suspension formulation
Procedure: An in vivo rat PK study was conducted to compare the PK profile and bioavailability of crystalline form against amorphous form of Compound 1 in an aqueous liquid suspension formulation, which contained 0.5% w/v Hydroxypropyl Cellulose (Klucel GF grade) and 0.5% w/v Poloxamer F-68 (BASF Kolliphor P188). Each animal was orally administrated 10 mg/kg of Compound 1 at 5 mL/kg dosing volume (a dosing concentration of 2 mg/mL).

[6] = oral 10 mg/kg, suspension in 0.5% w/v Klucel GF and 0.5% w/v Poloxamer F-68, 10 mg/kg

hygroscopicity ([1]; DVS, 25° C.): low hygroscopicity
hysteresis between adsorption and desorption (DVS plot) ([1]; DVS, 25° C.): no hysteresis
form change by XRPD before and after DVS test ([1]; XRPD, FIG. 7): no form change
weight gain after dynamic vapor sorption cycle ([1]; about 0% RH to about 65% RH at 25° C.): about 0.31%
CCX168 Solubility at 37° C. ([2]; 0.1N HCl (pH 1.06), 0.5 Hr.): 47.5 µg/mL
CCX168 Solubility at 37° C. ([2]; 0.1N HCl (pH 1.06), 1 Hr.): 54.0 µg/mL
CCX168 Solubility at 37° C. ([2]; 0.1N HCl (pH 1.06), 2 Hr.): 74.7 µg/mL
CCX168 Solubility at 37° C. ([2]; 0.1N HCl (pH 1.06), 4 Hr.): 61.7 µg/mL
CCX168 Solubility at 37° C. ([2]; FaSSGF (pH 1.64), 0.5 Hr.): 9.3 µg/mL
CCX168 Solubility at 37° C. ([2]; FaSSGF (pH 1.64), 1 Hr.): 7.8 µg/mL
CCX168 Solubility at 37° C. ([2]; FaSSGF (pH 1.64), 2 Hr.): BQL (BQL = Less than 3.1 μg/mL)
CCX168 Solubility at 37° C. ([2]; FaSSGF (pH 1.64), 4 Hr.): ND (ND = Not Detected)
CCX168 Solubility at 37° C. ([2]; FeSSIF (pH 4.90), 0.5 Hr.): 6.0 µg/mL
CCX168 Solubility at 37° C. ([2]; FeSSIF (pH 4.90), 1 Hr.): 9.9 µg/mL
CCX168 Solubility at 37° C. ([2]; FeSSIF (pH 4.90), 2 Hr.): 9.0 µg/mL
CCX168 Solubility at 37° C. ([2]; FeSSIF (pH 4.90), 4 Hr.): 7.4 µg/mL
aqueous solubility in an IV formulation compared to the crystalline form ([3]; particularly at early time points): improved the aqueous solubility
solubility at 8 h ([3]; saline/PEG400/Tween80 (88:10:1) IV formulation, aqueous with cosolvent or surfactant or cyclodextrin, thermodynamic from solid, saline/PEG400/Tween80 (88:10:1), 8 Hr.): 35.6 µg/mL (≈ 61.2 µM)
solubility at 24 h ([3]; saline/PEG400/Tween80 (88:10:1) IV formulation, aqueous with cosolvent or surfactant or cyclodextrin, thermodynamic from solid, saline/PEG400/Tween80 (88:10:1), 24 Hr.): 28.9 µg/mL (≈ 49.7 µM)
solubility at 48 h ([3]; saline/PEG400/Tween80 (88:10:1) IV formulation, aqueous with cosolvent or surfactant or cyclodextrin, thermodynamic from solid, saline/PEG400/Tween80 (88:10:1), 48 Hr.): 26.9 µg/mL (≈ 46.2 µM)
solubility at 96 h ([3]; saline/PEG400/Tween80 (88:10:1) IV formulation, aqueous with cosolvent or surfactant or cyclodextrin, thermodynamic from solid, saline/PEG400/Tween80 (88:10:1), 96 Hr.): 26.3 µg/mL (≈ 45.2 µM)
Solubility in IV Formulation ([3]; saline/PEG400/Tween80 (88:10:1), 0.5 Hr.): 140.0 µg/mL (≈ 241 µM)
Solubility in IV Formulation ([3]; saline/PEG400/Tween80 (88:10:1), 1 Hr.): 150.6 µg/mL (≈ 259 µM)
Solubility in IV Formulation ([3]; saline/PEG400/Tween80 (88:10:1), 2 Hr.): 96.1 µg/mL (≈ 165 µM)
Solubility in IV Formulation ([3]; saline/PEG400/Tween80 (88:10:1), 4 Hr.): 52.8 µg/mL (≈ 90.8 µM)
Unspecified Individual Related Substances (HPLC) ([4]; RRT0.45, Time Zero): RRT0.45: <0.05%
Unspecified Individual Related Substances (HPLC) ([4]; RRT0.50, Time Zero): RRT0.50: <0.05%
Unspecified Individual Related Substances (HPLC) ([4]; RRT0.90, Time 12 months (25° C./60% RH)): RRT0.90: 0.20%
Unspecified Individual Related Substances (HPLC) ([4]; RRT0.90, Time Zero): RRT0.90: 0.05%
Unspecified Individual Related Substances (HPLC) ([4]; RRT0.96, Time 12 months (25° C./60% RH)): RRT0.96: <0.05%
Unspecified Individual Related Substances (HPLC) ([4]; RRT0.96, Time Zero): RRT0.96: <0.05%
Specified Individual Related Substances (HPLC) ([4]; Time 12 months (25° C./60% RH)): RRT1.05: <0.05%
Specified Individual Related Substances (HPLC) ([4]; Time Zero): RRT1.05: 0.08%
Unspecified Individual Related Substances (HPLC) ([4]; RRT1.06, Time 12 months (25° C./60% RH)): RRT1.06: 0.07%
Unspecified Individual Related Substances (HPLC) ([4]; RRT1.14, Time 12 months (25° C./60% RH)): RRT1.14: <0.05%
Unspecified Individual Related Substances (HPLC) ([4]; RRT1.14, Time Zero): RRT1.14: 0.05%
Unspecified Individual Related Substances (HPLC) ([4]; RRT1.16, Time Zero): RRT1.16: <0.05%
Unspecified Individual Related Substances (HPLC) ([4]; RRT1.20, Time Zero): RRT1.20: 0.22%
Unspecified Individual Related Substances (HPLC) ([4]; RRT1.21, Time Zero): RRT1.21: 0.06%
Unspecified Individual Related Substances (HPLC) ([4]; RRT1.22, Time Zero): RRT1.22: <0.05%
Appearance ([4]; Time 12 months (25° C./60% RH)): Off-white Powder
Potency (HPLC) ([4]; Time 12 months (25° C./60% RH)): 98.9% w/w
Total Impurities and Related Substances (HPLC) ([4]; Time 12 months (25° C./60% RH)): 0.20%
Water Content (KF) ([4]; Time 12 months (25° C./60% RH)): 0.31%
enantiomeric impurity ([4]; Time 12 months (25° C./60% RH)): 0.0%
Appearance ([4]; Time Zero): Off-white Powder
Potency (HPLC) ([4]; Time Zero): 99.5% w/w
Total Impurities and Related Substances (HPLC) ([4]; Time Zero): 0.38%
Water Content (KF) ([4]; Time Zero): 0.33%
enantiomeric impurity ([4]; Time Zero): 0.0%
AUC(0-inf) ([5]; in vivo, oral 10 mg/kg, suspension in 0.5% w/v Klucel GF and 0.5% w/v Poloxamer F-68): 2470 ng·h/mL
AUC0-t ([5]; in vivo, oral 10 mg/kg, suspension in 0.5% w/v Klucel GF and 0.5% w/v Poloxamer F-68, read-out: AUC0-t): 2410 ng·h/mL
Cmax ([5]; in vivo, oral 10 mg/kg, suspension in 0.5% w/v Klucel GF and 0.5% w/v Poloxamer F-68, read-out: Cmax): 388 ng/mL
Cmax and AUC compared to the formulation containing crystalline form ([5]; oral 10 mg/kg suspension): significant increase in Cmax and AUC
MRT [5, 6]: 5.6 h
Tmax [5, 6]: 2 h
t1/2 [5, 6]: 4.7 h
Structure (SMILES): Cc1ccc(NC(=O)[C@H]2CCCN(C(=O)c3c(C)cccc3F)[C@H]2c2ccc(NC3CCCC3)cc2)cc1C(F)(F)F [Amorphous Compound 1, (2R,3S)-2-(4-(cyclopentylamino)phenyl)-1-(2-fluoro-6-methylbenzoyl)-N-(4-methyl-3-(trifluoromethyl)phenyl)piperidine-3-carboxamide]
